Measured values: the supplement of paper PMC11821682

Experiments:
Danio rerio embryo = assay: BMC10 any morphological effect or mortality at 120 hpf; higher = less toxic
HL-60 = assay: Cell Health Index (toxicity pseudo-probability over dose series) (index 0-1); higher = more cytotoxic / cell stress;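 further: HL-60 cells exposed 4 h at 37 °C to ten threefold dilutions spanning 5 nM to 100 µM, multiparametric flow cytometry features scored by machine-learning classification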

SMILES: N[C@H]1CONC1=O [L-Cycloserine]
- BMC10 any morphological effect or mortality (Danio rerio embryo): > 100 µM
- Cell Health Index (HL-60): 0.19

SMILES: Nc1ccn([C@@H]2CS[C@H](CO)O2)c(=O)n1 [Lamivudine]
- BMC10 any morphological effect or mortality (Danio rerio embryo): > 100 µM
- Cell Health Index (HL-60): 0.2

SMILES: COC(=O)N[C@H](C(=O)N1CC2(CC2)C[C@H]1c1ncc(-c2ccc3c(c2)C(F)(F)c2cc(-c4ccc5nc([C@@H]6[C@H]7CC[C@H](C7)N6C(=O)[C@@H](NC(=O)OC)C(C)C)[nH]c5c4)ccc2-3)[nH]1)C(C)C [Ledipasvir]
- BMC10 any morphological effect or mortality (Danio rerio embryo): > 100 µM
- Cell Health Index (HL-60): 0.231

SMILES: COc1cccc(N2CCN(C3=Nc4c(F)cccc4[C@H](CC(=O)O)N3c3cc(C(F)(F)F)ccc3OC)CC2)c1 [Letermovir]
- BMC10 any morphological effect or mortality (Danio rerio embryo): > 100 µM
- Cell Health Index (HL-60): 0.303

SMILES: CC(=O)N[C@@H](CC(C)C)C(=O)N[C@@H](CC(C)C)C(=O)N[C@H](C=O)CCCNC(=N)N.CC(=O)N[C@@H](CC(C)C)C(=O)N[C@@H](CC(C)C)C(=O)N[C@H](C=O)CCCNC(=N)N.O=S(=O)(O)O [Leupeptin]
- BMC10 any morphological effect or mortality (Danio rerio embryo): > 100 µM
- Cell Health Index (HL-60): 0.184

SMILES: CC1(C)O[C@H]2CC(=O)OC[C@]23[C@H]2CC[C@@]4(C)[C@H](c5ccoc5)OC(=O)[C@H]5O[C@]54[C@]2(C)C(=O)C[C@@H]13 [Limonin]
- BMC10 any morphological effect or mortality (Danio rerio embryo): > 100 µM
- Cell Health Index (HL-60): 0.145

SMILES: CC(C)(C)C#Cc1cc(N(C(=O)[C@H]2CC[C@H](C)CC2)[C@H]2CC[C@@H](O)CC2)c(C(=O)O)s1 [Lomibuvir]
- BMC10 any morphological effect or mortality (Danio rerio embryo): > 100 µM
- Cell Health Index (HL-60): 0.414

SMILES: Cc1cccc(C)c1OCC(=O)N[C@@H](Cc1ccccc1)[C@@H](O)C[C@H](Cc1ccccc1)NC(=O)[C@H](C(C)C)N1CCCNC1=O [Lopinavir]
- BMC10 any morphological effect or mortality (Danio rerio embryo): > 100 µM
- Cell Health Index (HL-60): 0.752

SMILES: CCCCc1nc(Cl)c(C=O)n1Cc1ccc(-c2ccccc2-c2nnn[nH]2)cc1 [Losartan carboxaldehyde]
- BMC10 any morphological effect or mortality (Danio rerio embryo): > 100 µM
- Cell Health Index (HL-60): 0.293

SMILES: CCCCc1nc(Cl)c(C(=O)O)n1Cc1ccc(-c2ccccc2-c2nnn[nH]2)cc1 [Losartan carboxylic acid]
- BMC10 any morphological effect or mortality (Danio rerio embryo): > 100 µM
- Cell Health Index (HL-60): 0.221

SMILES: CCCCc1nc(Cl)c(CO)n1Cc1ccc(-c2ccccc2-c2nnn[n-]2)cc1.[K+] [Losartan]
- BMC10 any morphological effect or mortality (Danio rerio embryo): > 100 µM
- Cell Health Index (HL-60): 0.209

SMILES: CCCCN(CCCC)CC(O)c1cc(Cl)cc2c1-c1ccc(Cl)cc1/C2=C/c1ccc(Cl)cc1 (stereo not given) [Lumefantrine]
- BMC10 any morphological effect or mortality (Danio rerio embryo): > 100 µM
- Cell Health Index (HL-60): 0.218

SMILES: O=c1cc(-c2ccc(O)c(O)c2)oc2cc(O)cc(O)c12 [Luteolin]
- BMC10 any morphological effect or mortality (Danio rerio embryo): > 100 µM
- Cell Health Index (HL-60): 0.54

SMILES: O=c1cc(-c2ccc(O)c(O)c2)oc2cc(O[C@@H]3O[C@H](CO)[C@@H](O)[C@H](O)[C@H]3O)cc(O)c12 [Luteoloside]
- BMC10 any morphological effect or mortality (Danio rerio embryo): > 100 µM
- Cell Health Index (HL-60): 0.345

SMILES: O=C(O)Cn1nnc(-c2cc(N3CCC(Oc4cc(F)ccc4Br)CC3)no2)n1 [MK-8245]
- BMC10 any morphological effect or mortality (Danio rerio embryo): > 100 µM
- Cell Health Index (HL-60): 0.226

SMILES: O=c1c2cc(O)c(O)cc2oc2cc(O)c([C@@H]3O[C@H](CO)[C@@H](O)[C@H](O)[C@H]3O)c(O)c12 [Mangiferin]
- BMC10 any morphological effect or mortality (Danio rerio embryo): > 100 µM
- Cell Health Index (HL-60): 0.26

SMILES: Cc1nnc(C(C)C)n1[C@@H]1C[C@H]2CC[C@@H](C1)N2CC[C@H](NC(=O)C1CCC(F)(F)CC1)c1ccccc1 [Maraviroc]
- BMC10 any morphological effect or mortality (Danio rerio embryo): > 100 µM
- Cell Health Index (HL-60): 0.155

SMILES: COc1cc(NC(=O)Nc2cccc(CNC(=O)O[C@H]3CCOC3)c2)ccc1-c1cnco1 [Merimepodib]
- BMC10 any morphological effect or mortality (Danio rerio embryo): > 100 µM
- Cell Health Index (HL-60): 0.67

SMILES: COC(=O)c1cc(O)c(O)c(O)c1 [Methyl gallate]
- BMC10 any morphological effect or mortality (Danio rerio embryo): > 100 µM
- Cell Health Index (HL-60): 0.351

SMILES: CCCCN1C[C@H](O)[C@@H](O)[C@H](O)[C@H]1CO.Cl [Miglustat]
- BMC10 any morphological effect or mortality (Danio rerio embryo): > 100 µM
- Cell Health Index (HL-60): 0.184

SMILES: NC(=O)c1ncn([C@@H]2O[C@H](CO)[C@@H](O)[C@H]2O)c1O [Mizoribine]
- BMC10 any morphological effect or mortality (Danio rerio embryo): > 100 µM
- Cell Health Index (HL-60): 0.202

SMILES: Cl.N=C(N)NC(=N)N1CCOCC1 [Moroxydine]
- BMC10 any morphological effect or mortality (Danio rerio embryo): > 100 µM
- Cell Health Index (HL-60): 0.19

SMILES: CNc1ncnc2c1ncn2[C@@H]1O[C@H](CO)[C@@H](O)[C@H]1O [N6-Methyladenosine]
- BMC10 any morphological effect or mortality (Danio rerio embryo): > 100 µM
- Cell Health Index (HL-60): 0.307

SMILES: CC(=O)NC1[C@H]([C@H](O)[C@H](O)CO)O[C@@](O[C@H]2[C@@H](O)[C@@H](CO)O[C@@H](O[C@@H]([C@H](O)[C@@H](O)C=O)[C@H](O)CO)[C@@H]2O)(C(=O)[O-])C[C@@H]1O.[Na+] (stereo not given in full) [N-Acetylneuraminoyllactose]
- BMC10 any morphological effect or mortality (Danio rerio embryo): > 100 µM
- Cell Health Index (HL-60): 0.235

SMILES: CCCCCCCCCN1C[C@H](O)[C@@H](O)[C@H](O)[C@H]1CO [N-Nonyldeoxynojirimycin]
- BMC10 any morphological effect or mortality (Danio rerio embryo): > 100 µM
- Cell Health Index (HL-60): 0.254

SMILES: CC(=O)N[C@@H](CS)C(=O)O [N-acetyl-L-Cysteine]
- BMC10 any morphological effect or mortality (Danio rerio embryo): > 100 µM
- Cell Health Index (HL-60): 0.143

SMILES: CS(=O)(=O)O.Cc1c(O)cccc1C(=O)N[C@@H](CSc1ccccc1)[C@H](O)CN1C[C@H]2CCCC[C@H]2C[C@H]1C(=O)NC(C)(C)C [Nelfinavir]
- BMC10 any morphological effect or mortality (Danio rerio embryo): > 100 µM
- Cell Health Index (HL-60): 0.453

SMILES: C=C1CC[C@@H]2[C@](C)(CO[C@@H]3O[C@H](CO)[C@@H](O)[C@H](O)[C@H]3O)CCC[C@@]2(C)[C@@H]1CCC1=CCOC1=O [Neoandrographolide]
- BMC10 any morphological effect or mortality (Danio rerio embryo): > 100 µM
- Cell Health Index (HL-60): 0.21

SMILES: Cc1ccnc2c1NC(=O)c1cccnc1N2C1CC1 [Nevirapine]
- BMC10 any morphological effect or mortality (Danio rerio embryo): > 100 µM
- Cell Health Index (HL-60): 0.185

SMILES: CC(=O)O[C@H]1CC(=O)OC(C)(C)[C@@H]2CC(=O)[C@]3(C)[C@H](CC[C@@]4(C)[C@H](c5ccoc5)OC(=O)[C@H]5O[C@]543)[C@@]12C [Nomilin]
- BMC10 any morphological effect or mortality (Danio rerio embryo): > 100 µM
- Cell Health Index (HL-60): 0.278

SMILES: O=c1cc(-c2ccc(O)c(O)c2)oc2c([C@@H]3O[C@H](CO)[C@@H](O)[C@H](O)[C@H]3O)c(O)cc(O)c12 [Orientin]
- BMC10 any morphological effect or mortality (Danio rerio embryo): > 100 µM
- Cell Health Index (HL-60): 0.337

SMILES: CCOC(=O)C1=C[C@@H](OC(CC)CC)[C@H](NC(C)=O)[C@@H](N)C1.O=P(O)(O)O [Oseltamivir]
- BMC10 any morphological effect or mortality (Danio rerio embryo): > 100 µM
- Cell Health Index (HL-60): 0.252

SMILES: O=C1CCC[C@@H]2[C@H]3CCC[N+]4([O-])CCC[C@@H](CN12)[C@@H]34 (stereo not given in full) [Oxymatrine]
- BMC10 any morphological effect or mortality (Danio rerio embryo): > 100 µM
- Cell Health Index (HL-60): 0.187

SMILES: Oc1cc(O)cc(/C=C/c2ccc(O)cc2O)c1 [Oxyresveratrol]
- BMC10 any morphological effect or mortality (Danio rerio embryo): > 100 µM
- Cell Health Index (HL-60): 0.673

SMILES: CC(=O)Nc1nc(C)c(-c2ccc(Cl)c(S(=O)(=O)NCCO)c2)s1 [PIK-93]
- BMC10 any morphological effect or mortality (Danio rerio embryo): > 100 µM
- Cell Health Index (HL-60): 0.267

SMILES: CCCn1c(=O)[nH]c2nc(-c3ccc(S(=O)(=O)N4CCN(c5ccc(Cl)cc5)CC4)cc3)[nH]c2c1=O [PSB-603]
- BMC10 any morphological effect or mortality (Danio rerio embryo): > 100 µM
- Cell Health Index (HL-60): 0.489

SMILES: C[C@@]1(F)[C@H](O)[C@@H](CO)O[C@H]1n1ccc(=O)[nH]c1=O [PSI-6206]
- BMC10 any morphological effect or mortality (Danio rerio embryo): > 100 µM
- Cell Health Index (HL-60): 0.116

SMILES: CCCCCCCCCCCCCCCC(=O)NCCO [Palmitoyl ethanolamide]
- BMC10 any morphological effect or mortality (Danio rerio embryo): > 100 µM
- Cell Health Index (HL-60): 0.283

SMILES: Cc1cnc(C(=O)N[C@H]2CCCCC/C=C\[C@@H]3C[C@@]3(C(=O)NS(=O)(=O)C3CC3)NC(=O)[C@@H]3C[C@@H](Oc4nc5ccccc5c5ccccc45)CN3C2=O)cn1 [Paritaprevir]
- BMC10 any morphological effect or mortality (Danio rerio embryo): > 100 µM
- Cell Health Index (HL-60): 0.626

SMILES: C[C@H]1CC[C@@]2(O)C(C)(C)[C@@H]3CC[C@@]2(C)[C@H]1C3 [Patchouli alcohol]
- BMC10 any morphological effect or mortality (Danio rerio embryo): > 100 µM
- Cell Health Index (HL-60): 0.202

SMILES: Nc1nc(=O)c2c(CCc3ccc(C(=O)N[C@@H](CCC(=O)[O-])C(=O)[O-])cc3)c[nH]c2[nH]1.O.O.O.O.O.O.O.[Na+].[Na+] [Pemetrexed]
- BMC10 any morphological effect or mortality (Danio rerio embryo): > 100 µM
- Cell Health Index (HL-60): 0.15

SMILES: Nc1nc(=O)c2ncn(CCC(CO)CO)c2[nH]1 [Penciclovir]
- BMC10 any morphological effect or mortality (Danio rerio embryo): > 100 µM
- Cell Health Index (HL-60): 0.126

SMILES: CC(=O)CCCCn1c(=O)c2c(ncn2C)n(C)c1=O [Pentoxifylline]
- BMC10 any morphological effect or mortality (Danio rerio embryo): > 100 µM
- Cell Health Index (HL-60): 0.147

SMILES: CC(C)CC(=O)N[C@H](C(=O)N[C@H](C(=O)N[C@@H](CC(C)C)[C@@H](O)CC(=O)N[C@@H](C)C(=O)N[C@@H](CC(C)C)[C@@H](O)CC(=O)O)C(C)C)C(C)C [Pepstatin A]
- BMC10 any morphological effect or mortality (Danio rerio embryo): > 100 µM
- Cell Health Index (HL-60): 0.154

SMILES: CCC(CC)[C@H](NC(C)=O)[C@@H]1[C@H](O)[C@@H](C(=O)O)C[C@H]1NC(=N)N [Peramivir]
- BMC10 any morphological effect or mortality (Danio rerio embryo): > 100 µM
- Cell Health Index (HL-60): 0.202

SMILES: CC(C)Cc1ncc(Cc2ccccc2)[nH]c1=O [Pheleuin]
- BMC10 any morphological effect or mortality (Danio rerio embryo): > 100 µM
- Cell Health Index (HL-60): 0.182

SMILES: O=C1NC(=O)C(c2ccccc2)(c2ccccc2)N1 [Phenytoin]
- BMC10 any morphological effect or mortality (Danio rerio embryo): > 100 µM
- Cell Health Index (HL-60): 0.193

SMILES: COC(=O)N[C@H](C(=O)N1CCC[C@H]1c1nc2cc([C@H]3CC[C@H](c4cc5nc([C@@H]6CCCN6C(=O)[C@@H](NC(=O)OC)[C@@H](C)OC)[nH]c5cc4F)N3c3cc(F)c(N4CCC(c5ccc(F)cc5)CC4)c(F)c3)c(F)cc2[nH]1)[C@@H](C)OC [Pibrentasvir]
- BMC10 any morphological effect or mortality (Danio rerio embryo): > 100 µM
- Cell Health Index (HL-60): 0.268

SMILES: c1cc(CN2CCCNCCNCCCNCC2)ccc1CN1CCCNCCNCCCNCC1 [Plerixafor]
- BMC10 any morphological effect or mortality (Danio rerio embryo): > 100 µM
- Cell Health Index (HL-60): 0.115

SMILES: OC[C@H]1O[C@@H](Oc2cc(O)cc(C=Cc3ccc(O)cc3)c2)[C@H](O)[C@@H](O)[C@@H]1O [Polydatin]
- BMC10 any morphological effect or mortality (Danio rerio embryo): > 100 µM
- Cell Health Index (HL-60): 0.106
